# From US10206906B2, “Synergistic combination of a phenolic-rich maple syrup extract and an antibiotic” (priority 2015, dated 2019)
# What was measured:
# [1] = tested on: P. aeruginosa PA14 biofilm; assay: Biofilm formation, microtitre plate crystal violet assay; format: cell-based, Pseudomonas aeruginosa; details: p<0.05
# Procedure: (§1) Biofilm formation is quantified using the standard microtitre plate model. […] Aliquots (100 μL) of these cultures are transferred into the wells of polystyrene, flat bottom, non-treated 96 well plates (Falcon™, Corning™), in triplicate. For all assays, biofilms are allowed to develop for 16 h at 37° C. under static conditions, after which OD600 values are recorded, the spent broth is decanted from the wells, and the wells are gently rinsed three times with DI water. The washed biofilm is stained with crystal violet (CV). For CV stain assay, 100 μL of 0.1% (w/v) CV is loaded in each well and the plates are incubated for 15 min under static conditions at room temperature. The wells are subsequently rinsed with DI water to remove excess dye and the CV adsorbed to the biomass in each well is solubilized in 100 μL of absolute ethanol for 10 min. The solubilized CV is then quantified (as OD570) using a microplate reader. Control experiments are performed with cell-free broth to adjust for the background signal.
# [2] = tested on: P. aeruginosa PAO1 biofilm; assay: as above; format: cell-based, Pseudomonas aeruginosa; details: p<0.05
# Procedure: as §1
# [3] = tested on: proton motive force-driven multidrug efflux pump of P. mirabilis HI4320; assay: Ethidium bromide (EtBr) efflux assay; format: cell-based, Proteus mirabilis; details: PRMSE, catechol at 0.25 times the MIC; CCCP 100 μM; untreated cells 35.9
# Procedure: An overnight grown culture of each strain is diluted 1:100 using MHB-II broth to a final volume of 10 mL and grown to an OD600 of 0.8-1.0 (at 37° C., 150 rpm). […] The tubes are incubated for 1 h (37° C., 150 rpm). The inoculum is then adjusted to 0.4 OD600 with MHB-II broth containing 5 μM EtBr and 2 mL aliquots of this mixture are pelleted (5000×g, 10 min at 4° C.). The pellets are incubated on ice immediately, resuspended in 1 mL of MHB-II, and aliquoted (200 μL) into a polystyrene 96 well black, clear-bottom plate (Corning™, Fisher Scientific, ON, Canada). EtBr efflux from the cells is monitored at room temperature using the microplate reader (ex/em 530/600 nm). Readings are taken at 5 min intervals for 1 h to monitor efflux pump activity. The background fluorescence of the medium is subtracted from all measurements and the assay is repeated independently in triplicate.
# [4] = substance alone at sub-lethal concentrations, 16 h
# [5] = with ciprofloxacin, both at sub-lethal concentrations
smiles,measurement,setting,value
"Oc1ccccc1O [catechol, 1,2-dihydroxybenzene]",inhibition of monoculture biofilm formation (OD570/OD600),[1]; [4],significant inhibitory effects
same,"inhibitory effect on biofilm formation, with ciprofloxacin",[1]; [5],significant inhibitory effects
same,inhibition of monoculture biofilm formation (OD570/OD600),[2]; [4],significant inhibitory effects
same,"inhibitory effect on biofilm formation, with ciprofloxacin",[2]; [5],significant inhibitory effects
same,Efflux pump activity,[3],33.9%
